Reference: patent publication US20250206759A1, “FUSED RING COMPOUND, PHARMACEUTICAL COMPOSITION CONTAINING SAME, AND USE OF FUSED RING COMPOUND” (CHENGDU HYPERWAY PHARMACEUTICALS CO., LTD., priority 2022, published 2025)
pIC50: −log10 of the molar value.

System: KRas G12D-mediated ERK phosphorylation
Test: Inhibition of KRas G12D-mediated ERK phosphorylation in AGS cells
Assay type: cell-based
Conditions: Homo sapiens, AGS, read-out: AGS-pERK IC50
Procedure: Day 1: AGS cells were seeded into 384-well cell culture plates and cultured overnight in a 37° C., 5% CO2 incubator.
Day 2: The compounds were added to the plates using Echo550 and incubated for 3 h in a 37° C., 5% CO2 incubator. Then cells were fixed with paraformaldehyde, permeated with methanol, and blocked with the blocking solution. Finally, a mixed solution of primary antibodies (rabbit anti pERK, mouse anti GAPDH) was added, and the mixture was incubated at 4° C. overnight.
Day 3: The mixed solution of primary antibodies was discarded, and a mixed solution of secondary antibodies (goat anti rabbit 800CW, goat anti mouse 680RD) was added. The mixture was incubated at room temperature in the dark. Finally, the cell culture plate was washed with PBST, and then inverted for 1 minute of centrifugation. The fluorescence signal values were read with Odyssey CLx.
ERK phosphorylation was calculated according to the following formula: […]
X: log value of compound concentration.
Y: average value of relative expression of p-ERK between replicate wells.

| Molecule | pIC50 |
| --- | --- |
| Cc1ccc([C@H]2CCC3(COc4nc(N5CC6CCC(C5)N6)c5cnc(-c6cc(O)cc7ccc(F)c(F)c67)c(F)c5n4)CCCN23)cc1 (mixture of isomers) [Example 213] | 8.74 |
| C#Cc1c(F)ccc2cc(O)cc(-c3ncc4c(N5CC6CCC(C5)N6)nc(OCC56CCCN5[C@@H](c5ccc(OC(F)(F)F)cc5)CC6)nc4c3F)c12 (mixture of isomers) [Example 214] | 9.00 |
| Oc1cc(-c2ncc3c(N4CC5CCC(C4)N5)nc(OCC45CCCN4[C@@H](c4ccc6c(c4)COC6)CC5)nc3c2F)c2c(F)c(F)ccc2c1 (mixture of isomers) [Example 217] | 8.89 |
| Oc1cc(-c2ncc3c(N4CC5CCC(C4)N5)nc(OCC45CCCN4[C@@H](c4ccc6ccccc6c4)CC5)nc3c2F)c2c(F)c(F)ccc2c1 (mixture of isomers) [Example 218] | 8.62 |
| Oc1cc(-c2ncc3c(N4CC5CCC(C4)N5)nc(OCC45CCCN4[C@@H](c4ccc(C(F)(F)F)c(C(F)(F)F)c4)CC5)nc3c2F)c2c(F)c(F)ccc2c1 (mixture of isomers) [Example 219] | 8.21 |
| Oc1cc(-c2ncc3c(N4CC5CCC(C4)N5)nc(OCC45CCCN4[C@@H](c4ccc(F)c(F)c4)CC5)nc3c2F)c2c(F)c(F)ccc2c1 (mixture of isomers) [Example 224] | 9.15 |
| COc1cc([C@H]2CCC3(COc4nc(N5CC6CCC(C5)N6)c5cnc(-c6cc(O)cc7ccc(F)c(F)c67)c(F)c5n4)CCCN23)ccc1C(F)(F)F (mixture of isomers) [Example 228] | 8.72 |
| Cc1cc(N)cc(-c2ncc3c(N4CC5CCC(C4)N5)nc(OCC45CCCN4[C@@H](c4ccc6c(c4)OC(F)(F)O6)CC5)nc3c2F)c1C(F)(F)F (mixture of isomers) [Example 235] | 7.89 |
| Oc1cc(-c2ncc3c(N4CC5CCC(C4)N5)nc(OCC45CCCN4[C@@H](c4ccc(F)cc4)CC5)nc3c2F)c2c(F)c(F)ccc2c1 (single isomer, unassigned) [Example 193] | 8.04 |
| C#Cc1c(F)ccc2cc(O)cc(-c3ncc4c(N5CC6CCC(C5)N6)nc(OCC56CCCN5[C@@H](c5ccc(F)cc5)CC6)nc4c3F)c12 (single isomer, unassigned) [Example 196] | 8.85 |
| Oc1cc(-c2ncc3c(N4CC5CCC(C4)N5)nc(OCC45CCCN4[C@@H](c4ccc(C(F)(F)F)cc4)CC5)nc3c2F)c2c(F)c(F)ccc2c1 (single isomer, unassigned) [Example 202] | 8.74 |
| C#Cc1c(F)ccc2cc(O)cc(-c3ncc4c(N5CC6CCC(C5)N6)nc(OCC56CCCN5[C@@H](c5ccc(C(F)(F)F)cc5)CC6)nc4c3F)c12 (single isomer, unassigned) [Example 204] | 9.11 |
| Oc1cc(-c2ncc3c(N4CC5CCC(C4)N5)nc(OCC45CCCN4C(c4cccc(F)c4)CC5)nc3c2F)c2c(F)c(F)ccc2c1 (stereo not drawn) [Example 110] | 7.46 |
| COc1ccc(C2CCC3(COc4nc(N5CC6CCC(C5)N6)c5cnc(-c6cc(O)cc7ccc(F)c(F)c67)c(F)c5n4)CCCN23)cc1OC (stereo not drawn) [Example 113] | 7.82 |

Same assay, conditions: read-out: AGS-pERK IC50

| Molecule | pIC50 |
| --- | --- |
| 4-(4-((1R,5S)-3,8-diazabicyclo[3.2.1]octan-3-yl)-2-((3-(1,3-dihydroisobenzofuran-5-yl-1,1,3,3-d4)tetrahydro-1H-pyrrolizin-7a(5H)-yl)methoxy)-8-fluoropyridin[4,3-d]pyrimidin-7-yl)naphthalen-2-ol [Example 148] | 7.92 |
| C#Cc1c(F)ccc2cc(O)cc(-c3ncc4c(N5C[C@H]6CC[C@@H](C5)N6)nc(OCC56CCCN5C(c5ccc(OC)cc5)CC6)nc4c3F)c12 (stereo partly drawn) [Example 52, 4-(4-((1R,5S)-3,8-diazabicyclo[3.2.1]octan-3-yl)-8-fluoro-2-((3-(4-methoxyphenyl)tetrahydro-1H-pyrrolidin-7a(5H)-yl)methoxy)pyrido[4,3-d]pyrimidin-7-yl)-5-ethynyl-6-fluoronaphthalen-2-ol] | 8.22 |

System: not listed separately
Test: Pharmacokinetics of compounds in rats (oral)
Assay type: in vivo, SD rats
Conditions: male, SD, rat, plasma, po, 100 mg/kg, male SD rats, 100 mg/kg, read-out: AUC
Procedure: Male SD rats were purchased from Shanghai SIPPR-Bk Lab Animal Co., Ltd. Each test compound was administered orally (3 rats per group) once to SD rats for pharmacokinetic study. The test compounds were prepared on the day of administration. The test compounds were suspended in 5% DMSO+95% saline, and then vortexed for 2 min and ultrasonicated for 5 min to prepare the administration system. The animals were fasted for 10-14 h before oral administration, and the feeding was resumed 4 h after administration. After oral administration by gavage, pharmacokinetic samples were collected from SD rats through the jugular vein. The collection time points were: before administration, 15 min, 30 min, 1 h, 2 h, 4 h, 6 h, 8 h and 24 h after administration. Three whole blood samples were collected at each time point, with a collection volume of about 0.2 mL, and anticoagulated with sodium heparin. After blood samples were collected, they were immediately placed on ice and centrifuged to separate plasma within 1 hour (centrifugation conditions: 6800 rpm, 6 min, 2-8° C.). The collected plasma was stored in a −80° C. refrigerator before analysis.

| Molecule | AUC [ng·h/mL] |
| --- | --- |
| Nc1cc(F)c(C(F)(F)F)c(-c2ncc3c(N4CC5CCC(C4)N5)nc(OCC45CCCN4C(c4ccc6c(c4)OC(F)(F)O6)CC5)nc3c2F)c1 (stereo not drawn) [Example 237] | 1510 |

Same assay, conditions: male, SD, rat, plasma, po, 100 mg/kg, male SD rats, 100 mg/kg, read-out: Cmax

| Molecule | Cmax [ng/mL] |
| --- | --- |
| Nc1cc(F)c(C(F)(F)F)c(-c2ncc3c(N4CC5CCC(C4)N5)nc(OCC45CCCN4C(c4ccc6c(c4)OC(F)(F)O6)CC5)nc3c2F)c1 (stereo not drawn) [Example 237] | 362 |
